Results on 34 molecules are retold here after EP2272817A1, “PAI-1 INHIBITOR” (Institute of Medicinal Molecular Design, Inc., priority 2008, dated 2009).

pIC50: −log10 of the molar value.

recombinant human PAI-1, sequence (P05121 24-402): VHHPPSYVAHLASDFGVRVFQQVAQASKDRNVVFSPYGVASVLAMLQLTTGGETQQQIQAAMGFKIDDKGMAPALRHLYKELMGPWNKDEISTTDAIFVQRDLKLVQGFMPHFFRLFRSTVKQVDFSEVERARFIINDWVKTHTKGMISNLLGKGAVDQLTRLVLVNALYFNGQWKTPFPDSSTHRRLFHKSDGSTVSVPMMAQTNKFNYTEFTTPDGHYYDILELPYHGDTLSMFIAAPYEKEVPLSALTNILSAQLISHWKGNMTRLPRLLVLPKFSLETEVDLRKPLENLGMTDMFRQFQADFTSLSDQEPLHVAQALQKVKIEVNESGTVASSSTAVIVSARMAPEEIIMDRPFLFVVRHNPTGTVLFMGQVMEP

The target in the first assay is recombinant human PAI-1 (Homo sapiens, UniProt P05121). The assay can be described thus: Test Example 2: Human PAI-1 Inhibitory Activity (pH 7.4 HEPES buffer, 10 minutes incubation with two-chain tPA). Also on record: purchased Molecular Innovations, Inc. The assay is classed as biochemical. To be noted: human PAI-1; calculated from the inhibition rates. As to the method:
0.1 M HEPES, 0.1 M NaCl. 1 mM EDTA. 0.1 % Polyethylene glycol 8,000 (Hampton Research Corporation),
2 mM Dimethyldecylphoshine oxide [Apo-10] (Fluka Corporation)
With `CC(C)(C)c1ccc(Oc2ccc(-c3ccc(C(F)(F)F)cc3)cc2OCC(=O)O)cc1` [Compound 328], the pIC50 is 5.84.

Still in this assay, the particulars now being: read-out: Inhibition Rate of PAI-1 Activity (%).
Take `CCCCCOc1cc(-c2ccc(OC(F)(F)F)cc2)cc(OCc2ccc(C(C)(C)C)cc2)c1OCC(=O)O` [Compound 301]: the inhibition at 0.1 µM worked out at 15%, the inhibition at 0.3 µM amounted to 25%, the inhibition at 1 µM was 96% and the inhibition at 3 µM is 97%.
For `CC(C)(C)c1ccc(Oc2ccc(-c3ccc(OC(F)(F)F)cc3)cc2OCC(=O)O)cc1` [Compound 302] the same measures were 0%, 9%, 27% and 98%.
The matching figures for `CCCCC(Oc1cc(-c2ccc(OC(F)(F)F)cc2)ccc1Oc1ccc(C(C)(C)C)cc1)C(=O)O` (centres unmarked) [Compound 303]: 0%, 13%, 87% and 94%.
For `CC(C)(C)c1ccc(COc2cc(-c3ccc(OC(F)(F)F)cc3)ccc2OCC(=O)O)cc1` [Compound 304] the same measures were 3%, 1%, 23% and 99%.
In the case of `CCCCC(Oc1ccc(-c2ccc(OC(F)(F)F)cc2)cc1Oc1ccc(C(C)(C)C)cc1)C(=O)O` (centres unmarked) [Compound 305], the inhibition at 0.1 µM turned out to be 6%, the inhibition at 0.3 µM was determined as 9%, the inhibition at 1 µM turned out to be 54% and the inhibition at 3 µM is 88%.
For `CCCCC(Oc1cc(-c2ccc(OC(F)(F)F)cc2)ccc1OCCCCc1ccccc1)C(=O)O` (centres unmarked) [Compound 306] the same measures were 0%, 0%, 72% and 97%.
For `CCCCC(Oc1cc(-c2ccc(OC(F)(F)F)cc2)ccc1Oc1ccccc1)C(=O)O` (centres unmarked) [Compound 307] the same measures were 0%, 1%, 22% and 91%.
The matching figures for `CCCCC(Oc1cc(Oc2ccc(OC(F)(F)F)cc2)ccc1OCc1ccc(C(C)(C)C)cc1)C(=O)O` (centres unmarked) [Compound 308]: 0%, 22%, 63% and 95%.
Take `CCCCC(Oc1cc(Oc2ccc(OC(F)(F)F)cc2)ccc1OCCCCc1ccccc1)C(=O)O` (centres unmarked) [Compound 309]: the inhibition at 0.1 µM worked out at 1%, the inhibition at 0.3 µM worked out at 17%, the inhibition at 1 µM was 66% and the inhibition at 3 µM turned out to be 91%.
As for `CCCCC(Oc1ccc(-c2ccc(OC(F)(F)F)cc2)cc1OCc1ccc(C(C)(C)C)cc1)C(=O)O` (centres unmarked) [Compound 310], the inhibition at 0.1 µM came out at 11%, the inhibition at 0.3 µM was 19%, the inhibition at 1 µM turned out to be 72% and the inhibition at 3 µM was found to be 96%.
The matching figures for `CCCCC(Oc1ccc(-c2ccc(OC(F)(F)F)cc2)cc1OCCCCc1ccccc1)C(=O)O` (centres unmarked) [Compound 311]: 0%, 11%, 77% and 97%.
The matching figures for `CCCCC(Oc1cc(Oc2ccc(OC(F)(F)F)cc2)ccc1Oc1ccc(C(C)(C)C)cc1)C(=O)O` (centres unmarked) [Compound 312]: 17%, 24%, 87% and 94%.
The matching figures for `CCCCC(Oc1cc(-c2ccc(OC(F)(F)F)cc2)ccc1OCc1ccc(C(C)(C)C)cc1)C(=O)O` (centres unmarked) [Compound 313]: 1%, 3%, 52% and 93%.
Take `CC(C)(C)c1ccc(Oc2ccc(-c3cccc(C(F)(F)F)c3)cc2OCC(=O)O)cc1` [Compound 314]: the inhibition at 0.1 µM came to 0%, the inhibition at 0.3 µM amounted to 5%, the inhibition at 1 µM stood at 22% and the inhibition at 3 µM was found to be 93%.
For `CC(C)(C)c1ccc(Oc2cc(-c3cccc(C(F)(F)F)c3)ccc2OCC(=O)O)cc1` [Compound 315] the same measures were 13%, 16%, 60% and above 99%.
Regarding `Cc1cccc(-c2ccc(Oc3ccc(C(C)(C)C)cc3)c(OCC(=O)O)c2)c1` [Compound 316], the inhibition at 0.1 µM amounted to 10%, the inhibition at 0.3 µM was determined as 8%, the inhibition at 1 µM is 28% and the inhibition at 3 µM worked out at 84%.
As for `CCCCC(Oc1cc(-c2cccc(C)c2)ccc1Oc1ccc(C(C)(C)C)cc1)C(=O)O` (centres unmarked) [Compound 317], the inhibition at 0.1 µM came to 14%, the inhibition at 0.3 µM amounted to 16%, the inhibition at 1 µM was found to be 79% and the inhibition at 3 µM came out at 94%.
As to `CCCCC(Oc1cc(-c2cccc(C(F)(F)F)c2)ccc1Oc1ccc(C(C)(C)C)cc1)C(=O)O` (centres unmarked) [Compound 318], the inhibition at 0.1 µM came out at 8%, the inhibition at 0.3 µM is 20%, the inhibition at 1 µM was found to be 90% and the inhibition at 3 µM was above 99%.
For `Cc1cccc(-c2ccc(OCC(=O)O)c(Oc3ccc(C(C)(C)C)cc3)c2)c1` [Compound 319] the same measures were 0%, 9%, 17% and 70%.
For `CCCCC(Oc1ccc(-c2cccc(C(F)(F)F)c2)cc1Oc1ccc(C(C)(C)C)cc1)C(=O)O` (centres unmarked) [Compound 320] the same measures were 1%, 9%, 70% and 98%.
Take `CCCCC(Oc1ccc(-c2cccc(C)c2)cc1Oc1ccc(C(C)(C)C)cc1)C(=O)O` (centres unmarked) [Compound 321]: the inhibition at 0.1 µM turned out to be 3%, the inhibition at 0.3 µM was 15%, the inhibition at 1 µM came out at 86% and the inhibition at 3 µM amounted to 94%.
Regarding `CCCCCCC(Oc1cc(-c2ccc(OC(F)(F)F)cc2)ccc1Oc1ccccc1)C(=O)O` (centres unmarked) [Compound 322], the inhibition at 0.1 µM came out at 0%, the inhibition at 0.3 µM is 4%, the inhibition at 1 µM is 69% and the inhibition at 3 µM came out at 92%.
The matching figures for `CCCCCCC(Oc1cc(-c2ccc(OC(F)(F)F)cc2)ccc1Oc1ccc(C(C)(C)C)cc1)C(=O)O` (centres unmarked) [Compound 323]: 19%, 16%, 91% and 82%.
The matching figures for `CCCCC(Oc1cc(-c2ccc(OC(F)(F)F)cc2)ccc1OCCCCc1ccc(F)cc1)C(=O)O` (centres unmarked) [Compound 324]: 0%, 1%, 66% and 97%.
Take `CCCCC(Oc1cc(-c2ccc(OC(F)(F)F)cc2)ccc1OCCCCc1ccc(Cl)cc1)C(=O)O` (centres unmarked) [Compound 325]: the inhibition at 0.1 µM was 11%, the inhibition at 0.3 µM came to 5%, the inhibition at 1 µM is 85% and the inhibition at 3 µM was determined as 91%.
For `CCCCCCC(Oc1cc(-c2ccc(OC(F)(F)F)cc2)ccc1Oc1ccc(OC(F)(F)F)cc1)C(=O)O` (centres unmarked) [Compound 326] the same measures were 0%, 28%, 94% and 94%.
The matching figures for `CCCCCCC(Oc1cc(-c2ccc(OC(F)(F)F)cc2)ccc1Oc1ccc(C(F)(F)F)cc1)C(=O)O` (centres unmarked) [Compound 327]: 0%, 15%, 94% and 95%.
For `CC(C)(C)c1ccc(Oc2ccc(-c3ccc(C(F)(F)F)cc3)cc2OCC(=O)O)cc1` [Compound 328] the same measures were 0%, 14%, 30% and above 99%.
With `CC(C)(C)c1ccc(Oc2ccc(-c3cccc(OC(F)(F)F)c3)cc2OCC(=O)O)cc1` [Compound 329], the inhibition at 0.1 µM was 6%, the inhibition at 0.3 µM was 11%, the inhibition at 1 µM stood at 28% and the inhibition at 3 µM was found to be 98%.
As for `CC(C)(C)c1ccc(Oc2cc(-c3ccc(C(F)(F)F)cc3)ccc2OCC(=O)O)cc1` [Compound 330], the inhibition at 0.1 µM was determined as 0%, the inhibition at 0.3 µM stood at 1%, the inhibition at 1 µM was 47% and the inhibition at 3 µM was 96%.
The matching figures for `CC(C)(C)c1ccc(Oc2cc(-c3cccc(OC(F)(F)F)c3)ccc2OCC(=O)O)cc1` [Compound 331]: 2%, 1%, 83% and 98%.
The matching figures for `CC(C)(C)c1ccc(Oc2cc(-c3cccc(C(F)(F)F)c3)ccc2CCC(=O)O)cc1` [Compound 332]: 12%, 4%, 29% and above 99%.
The matching figures for `CC(C)c1ccc(Oc2cc(-c3ccc(OC(F)(F)F)cc3)ccc2OCC(=O)O)cc1` [Compound 333]: 4%, 10%, 28% and 91%.
For `CC(C)(C)c1ccc(Oc2cc(-c3ccc(OC(F)(F)F)cc3)ccc2CC(=O)O)cc1` [Compound 334], the inhibition at 0.1 µM worked out at 0%, the inhibition at 0.3 µM was 1%, the inhibition at 1 µM is 21% and the inhibition at 3 µM came out at 87%.

As a reminder, the pIC50 is the IC50 on a negative log10 scale, so that one unit is a factor of ten. Broadly, the inhibition is the share of the control response that was lost under treatment.
